Laboratory results: patent publication EP0856511B1, “Calcium salt of indomethacin pentahydrate and its preparation” (Promindus (Actions Promotionnelles dans l'Industrie et le …, priority 1997, dated 1998)

How the values were obtained:
[1] = Effective dose 50 % (DE50) per os in the rat; format: in vivo
Description: (§1) En effet, les comparaisons respectives des DE50 (dose efficace 50 %) et DL50 (dose léthale 50 %) per os, chez le rat, de ladite indométacine calcique pentahydratée et de ladite indométacine libre sont nettement à l'avantage de ladite indométacine calcique.

[2] = Lethal dose 50 % (DL50) per os in the rat; format: in vivo
Description: as §1

[3] = in vivo
[4] = Solubility description in water and organic solvents; format: physicochemical

Row | Molecule | ED50 ([1]; po, dose efficace 50 %, per os, rat) [mg/kg] | LD50 ([2]; in vivo, po, dose léthale 50 %, per os, rat) [mg/kg] | tolérance locale par voie rectale [3] | activité pharmacologique ([1]; compared with the acid form) | DE50 ([1]; dose efficace 50 %, per os, rat) | DL50 ([2]; dose léthale 50 %, per os, rat) [mg/kg] | toxicité par voie orale ([2]; par voie orale, compared with the acid form) | Index thérapeutique : DL50/DE50 ([2]; per os, rat, ratio DL50/DE50) | solubilité dans l'acétonitrile [4] | solubilité dans l'eau [4] | solubilité dans l'éther [4] | solubilité dans le chloroforme ([4]; chloroforme) | solubilité dans le diméthylformamide ([4]; diméthylformamide) | solubilité dans le tétrahydrofuranne ([4]; tétrahydrofuranne)
1 | COc1ccc2c(c1)c(CC(=O)O)c(C)n2C(=O)c1ccc(Cl)cc1 [Indométacine, acide 1-(p-chlorobenzoyl)-5-méthoxy-2-méthylindole-3-acétique, reference compound] | 3 | 28 |  |  |  |  |  |  |  |  |  |  |  | 
2 | indométacine calcique pentahydratée |  |  | une meilleure tolérance locale | équivalente | 2,5 mg/kg | 45 | une toxicité diminuée | 18 | pratiquement insoluble | pratiquement insoluble | pratiquement insoluble | pratiquement insoluble | facilement soluble | soluble
